Measurements from patent US8410107B2, “N-pyridin-3-yl or N-pyrazin-2-yl carboxamides” (Hoffmann-La Roche Inc., priority 2010, dated 2013).

How the values were obtained:
ABCA1 protein = experiment: Detection of upregulation of ABCA1 protein in cells (ApoA-I binding, high content image analysis); format: cell-based; conditions: THP-1 macrophage cells; for % increase of ABCA1 at 3 μM: 24 hrs with compound; for EC50: ABCA1 protein increasing efficacy
Procedure: The ability of compounds of the invention to increase the level of ABCA1 protein is determined in replicate cultures of THP-1 macrophage cells in 96-well microplates. Cells are plated at an initial density of 100,000 cells/well in 100 μl medium and differentiated to adherent macrophages with the addition of PMA (100 nM) for 68 hrs in 10% fetal bovine serum, 3 μl/L of b-mercaptoethanol, RPMI-1640 medium. Then, cells are incubated with RPMI-1640 medium containing 1% FCS, 25 μg/ml acetylated LDL, for 24 hours at 37°. Following incubation with acetylated LDL, cells are washed twice with 50 μl PBS and incubated with 100 μl of RPMI-1640 medium containing the compound of interest solubilized in DMSO for an additional 24 hrs. The final DMSO concentration in presence of cells is maintained at 0.5%. ApoA-I binding assay using High Content Image Analysis is initiated by replacing with fresh medium, RPMI without Phenol Red, 0.2% BSA containing AlexaFluor®647 labeled ApoA-I for 2 h/37° C./5% CO2. Then, cells are fixed with 4% Formaldehyde inPBS (15 min, RT). Following Nuclei are stained with Hoechst solution (3 μM PBS) and Cytoplasm with Cell Mask Blue (2 μg/ml PBS), 15 min, RT. Finally the stained cells are fixed with a second round of formaldehyde treatment. Fixed stained cells are washed and kept in PBS at 4° C. and can be read immediately until one month after preparation.
The Alexa Fluor 647-labeled Apolipoprotein A-I (20 nM) was prepared as follows: Human recombinant Apolipoprotein A-I (ApoA-I) was exchanged to a buffer of 0.02 M NaHCO3 at pH 8.2 on an NAP desalting column (GE Healthcare) and brought to a concentration to 40 μM (1.13 mg/ml) by adjustment with the same buffer. The ApoA-I was fluorescently labeled by incubation with Alexa Fluor carboxylic acid succimidyl ester. (Alexa Fluor 647, Invitrogen A-20006) at a 2:1 molar ratio (Alexa to ApoA-I) for 1 h under shaking at RT. The remaining unconjugated label was removed by buffer exchange to 0.02M NaHCO3 at pH 8.2.
Imaging and data collection were performed on an OPERA confocal microplate imaging reader using a 20× water immersion objective and UV360 or 405 laser to identify the cell nuclei and a 635 laser to identify the fluorescent ApoA-I. Eight fields of view are captured per well. Image capture and analysis was performed with the Acapella software. Background fluorescence detected in control wells without ApoA-I was subtracted.
Using XLfit3 program (ID Business Solutions Ltd. UK), the model 205 for Dose Response One Site is used to calculate the EC50 values. The compounds of the present invention increase the level of ABCA1 protein by more than 45% at a concentration of 3 μM. […] Even more preferably, the compounds of the present invention have EC50 values in a range of 0.1 μM to 3 μM.

human CB2 receptor = biological target: T1, human CB2 receptor (Homo sapiens, UniProt P34972); experiment: CB2 receptor affinity ([3H]-CP-55,940 displacement, HEK cell membranes); format: binding; conditions: displacement of radioligand [3H]-CP-55,940
T1 construct: expressed in transfected cells; host or cells: human embryonic kidney (HEK) cells, Semliki Forest Virus system, membrane preparations
Procedure: (§1) The affinity of the compounds of the invention for cannabinoid CB2 receptors was determined using membrane preparations of human embryonic kidney (HEK) cells in which the human CB2 receptor is transiently transfected using a Semliki Forest Virus system in conjunction with [^3H]-CP-55,940 as radioligand. After incubation of freshly prepared cell membrane preparation with the [^3H]-ligand, with or without addition of compounds of the invention, separation of bound and free ligand was performed by filtration over glass fiber filters. Radioactivity on the filter was measured by scintillation counting.
(§2) The ability of the compounds to displace the radioligand [^3H]-CP-55,940 was measured at a concentration of 10 μM and values provided as [% inhibition @ 10 μM] both for the CB1 and CB2 receptor assay, The lower % inhibition is, the lower the likelihood of side effects based on CB1 or CB2 receptor inhibition is.

human CB1 receptor = biological target: T2, human CB1 receptor (Homo sapiens, UniProt P21554); experiment: CB1 receptor affinity ([3H]-CP-55,940 displacement, HEK cell membranes); format: binding; conditions: displacement of radioligand [3H]-CP-55,940
T2 construct: expressed in transfected cells; host or cells: human embryonic kidney (HEK) cells, Semliki Forest Virus system, membrane preparations
Procedure: as §1, with “cannabinoid” for “cannabinoid CB2”, “CB1” for “CB2”, “[3H]-CP-55,940” for “[^3H]-CP-55,940”
as §2

T2 sequence (P21554 whole entry): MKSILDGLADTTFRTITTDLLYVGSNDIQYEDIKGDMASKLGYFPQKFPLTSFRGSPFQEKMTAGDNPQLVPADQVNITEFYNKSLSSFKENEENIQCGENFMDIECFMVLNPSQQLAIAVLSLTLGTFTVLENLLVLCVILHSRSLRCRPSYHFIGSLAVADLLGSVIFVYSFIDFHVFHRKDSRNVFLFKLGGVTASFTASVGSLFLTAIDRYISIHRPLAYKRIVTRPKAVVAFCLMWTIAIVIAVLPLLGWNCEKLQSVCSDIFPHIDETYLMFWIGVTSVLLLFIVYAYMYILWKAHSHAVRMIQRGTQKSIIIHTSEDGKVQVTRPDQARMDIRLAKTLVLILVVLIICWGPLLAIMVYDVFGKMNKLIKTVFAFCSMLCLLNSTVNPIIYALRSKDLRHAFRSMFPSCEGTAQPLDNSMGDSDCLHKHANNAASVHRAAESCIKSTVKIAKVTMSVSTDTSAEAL
T1 sequence (P34972 whole entry): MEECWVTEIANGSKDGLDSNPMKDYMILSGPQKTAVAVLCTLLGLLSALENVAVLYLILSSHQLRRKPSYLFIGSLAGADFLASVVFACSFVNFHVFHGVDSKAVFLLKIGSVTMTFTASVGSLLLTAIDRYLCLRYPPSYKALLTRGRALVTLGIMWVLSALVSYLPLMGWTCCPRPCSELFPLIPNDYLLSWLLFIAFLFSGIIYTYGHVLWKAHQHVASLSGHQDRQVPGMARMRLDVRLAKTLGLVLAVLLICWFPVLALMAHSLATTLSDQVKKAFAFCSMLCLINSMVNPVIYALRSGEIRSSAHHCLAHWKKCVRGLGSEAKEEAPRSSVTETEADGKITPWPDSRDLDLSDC

Structure (SMILES) | % increase of ABCA1 at 3 μM (ABCA1 protein) [% @ 3 μM] | inhibition at 10 µM (human CB2 receptor) [%] | inhibition at 10 µM (human CB1 receptor) [%] | EC50 (ABCA1 protein) [nM]
O=C(Nc1cnc(OCC(F)(F)F)c(-c2ccc(Cl)cc2)c1)[C@H]1CCCO1 (racemic) [Example 70, (RS)-N-(5-(4-chlorophenyl)-6-(2,2,2-trifluoroethoxy)pyridin-3-yl)tetrahydrofuran-2-carboxamide] | >45 | 15 | 49 | –
O=C(Nc1cnc(OCC(F)(F)F)c(-c2ccc(Cl)cc2)c1)[C@H]1CCOC1 (racemic) [Example 71, (SR)-N-(5-(4-chlorophenyl)-6-(2,2,2-trifluoroethoxy)pyridin-3-yl)-tetrahydrofuran-3-carboxamide] | >45 | 4 | 41 | –
CCCCC(=O)Nc1cnc(OCC(F)(F)F)c(-c2ccc(Cl)cc2)c1 [Example 1, pentanoic acid[5-(4-chloro-phenyl)-6-(2,2,2-trifluoro-ethoxy)-pyridin-3-yl]-amide] | >45 | 9.2 | 45 | –
O=C(Nc1cnc(OCC(F)(F)F)c(-c2ccc(Cl)cc2)c1)c1ccccc1 [Example 2, N-[5-(4-chloro-phenyl)-6-(2,2,2-trifluoro-ethoxy)-pyridin-3-yl]-benzamide] | – | 4.9 | 33 | 2690
O=C(Nc1cnc(OCC(F)(F)F)c(-c2ccc(Cl)cc2)c1)c1cccnc1 [Example 3, N-[5-(4-chloro-phenyl)-6-(2,2,2-trifluoro-ethoxy)-pyridin-3-yl]-nicotinamide] | – | 8 | 29 | 2280
O=C(Nc1cnc(OCC(F)(F)F)c(-c2ccc(Cl)cc2)c1)c1ccncc1 [Example 4, N-[5-(4-chloro-phenyl)-6-(2,2,2-trifluoro-ethoxy)-pyridin-3-yl]-isonicotinamide] | >45 | 1.9 | 36 | –
CC(=O)Nc1cnc(OCC(F)(F)F)c(-c2ccc(Cl)cc2)c1 [Example 5, N-[5-(4-chloro-phenyl)-6-(2,2,2-trifluoro-ethoxy)-pyridin-3-yl]-acetamide] | >45 | -5.4 | 19 | –
CCCC(=O)Nc1cnc(OCC(F)(F)F)c(-c2ccc(Cl)cc2)c1 [Example 6, N-[5-(4-Chloro-phenyl)-6-(2,2,2-trifluoro-ethoxy)-pyridin-3-yl]-butyramide] | >45 | 11 | 47 | –
O=C(Nc1cnc(OCC(F)(F)F)c(-c2ccc(Cl)cc2)c1)c1ccccn1 [Example 7, pyridine-2-carboxylic acid[5-(4-chloro-phenyl)-6-(2,2,2-trifluoro-ethoxy)-pyridin-3-yl]-amide] | >45 | 1.2 | 13 | –
O=C(Nc1cnc(OCC2CC2)c(-c2ccc(Cl)cc2)c1)c1ccccc1 [Example 8, N-[5-(4-chloro-phenyl)-6-cyclopropylmethoxy-pyridin-3-yl]-benzamide] | – | 15 | 52 | 2770
CC(=O)Nc1cnc(OCC2CC2)c(-c2ccc(Cl)cc2)c1 [Example 9, N-[5-(4-chloro-phenyl)-6-cyclopropylmethoxy-pyridin-3-yl]-acetamide] | >45 | 9.6 | 24 | –
O=C(Nc1cnc(OCC2CC2)c(-c2ccc(Cl)cc2)c1)c1cccnc1 [Example 10, N-[5-(4-chloro-phenyl)-6-cyclopropylmethoxy-pyridin-3-yl]-nicotinamide] | – | 28 | 36 | 6510
O=C(Nc1cnc(OCC2CC2)c(-c2ccc(Cl)cc2)c1)c1ccncc1 [Example 11, N-[5-(4-chloro-phenyl)-6-cyclopropylmethoxy-pyridin-3-yl]-isonicotinamide] | >45 | -1.2 | 25 | –
O=C(Nc1cnc(OCC(F)(F)F)c(-c2ccc(Cl)cc2)c1)c1cnccn1 [Example 12, pyrazine-2-carboxylic acid[5-(4-chloro-phenyl)-6-(2,2,2-trifluoro-ethoxy)-pyridin-3-yl]-amide] | >45 | 4 | 22 | –
Cc1cc(C(=O)Nc2cnc(OCC(F)(F)F)c(-c3ccc(Cl)cc3)c2)n(C)n1 [Example 13, 2,5-dimethyl-2H-pyrazole-3-carboxylic acid[5-(4-chloro-phenyl)-6-(2,2,2-trifluoro-ethoxy)-pyridin-3-yl]-amide] | >45 | 3 | 16 | –
Cc1nocc1C(=O)Nc1cnc(OCC(F)(F)F)c(-c2ccc(Cl)cc2)c1 [Example 14, 3-methyl-isoxazole-4-carboxylic acid[5-(4-chloro-phenyl)-6-(2,2,2-trifluoro-ethoxy)-pyridin-3-yl]-amide] | >45 | 10 | 38 | –
Cn1ccc(C(=O)Nc2cnc(OCC(F)(F)F)c(-c3ccc(Cl)cc3)c2)n1 [Example 15, 1-methyl-1H-pyrazole-3-carboxylic acid[5-(4-chloro-phenyl)-6-(2,2,2-trifluoro-ethoxy)-pyridin-3-yl]-amide] | >45 | 2 | 27 | –
Cc1cc(C(=O)Nc2cnc(OCC(F)(F)F)c(-c3ccc(Cl)cc3)c2)no1 [Example 16, 5-methyl-3-isoxazolecarboxylic acid[5-(4-chloro-phenyl)-6-(2,2,2-trifluoro-ethoxy)-pyridin-3-yl]-amide] | – | -1 | 34 | 6050
O=C(Nc1cnc(OCC(F)(F)F)c(-c2ccc(Cl)cc2)c1)c1cccnn1 [Example 17, 3-pyridazinecarboxylic acid[5-(4-chloro-phenyl)-6-(2,2,2-trifluoro-ethoxy)-pyridin-3-yl]-amide] | – | -3 | 16 | 2310
Cc1cnccc1C(=O)Nc1cnc(OCC(F)(F)F)c(-c2ccc(Cl)cc2)c1 [Example 18, N-[5-(4-chloro-phenyl)-6-(2,2,2-trifluoro-ethoxy)-pyridin-3-yl]-3-methyl-4-pyridinecarboxylic acid amide] | >45 | 3 | 37 | –
O=C(Nc1cnc(OCC(F)(F)F)c(-c2ccc(Cl)cc2)c1)c1cncnc1 [Example 19, 5-pyrimidinecarboxylic acid[5-(4-chloro-phenyl)-6-(2,2,2-trifluoro-ethoxy)-pyridin-3-yl]-amide] | – | -10 | 25 | 1390
